Experimental data: the supplement of paper PMC10307832

Tests used:
Test in all cases: relative viability (nuclei count vs DMSO), 5 days (fraction); higher = more cells survive
Cabozantinib + OSI-027 = compound: COc1cc2nccc(Oc3ccc(NC(=O)C4(C(=O)Nc5ccc(F)cc5)CC4)cc3)c2cc1OC [Cabozantinib] + COc1cccc2cc(-c3nc([C@H]4CC[C@H](C(=O)O)CC4)n4ncnc(N)c34)[nH]c12 [OSI-027] (partner 0.5 µM)
Procedure, shortened: (§1)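 Each reported value is a median over duplicate plates. It expresses relative viability: treated-well nuclei count divided by vehicle-well nuclei count. Lung cancer cell lines in 1536-well plates were dosed by pin tool a day after seeding, alone with one drug or with a fixed anchor-drug dose plus five library-drug doses (not always all listed) in √10 steps, and nuclei were counted after 5 days.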

Kobe2602 + Dasatinib = compound: C1=CC(=CC=C1NC(=S)NNC2=C(C=C(C=C2[N+](=O)[O-])C(F)(F)F)[N+](=O)[O-])F [Kobe2602] + Cc1nc(Nc2ncc(C(=O)Nc3c(C)cccc3Cl)s2)cc(N2CCN(CCO)CC2)n1 [Dasatinib] (partner 0.075 µM)
Procedure, shortened: as §1

Kobe2602 + Alpelisib = compound: C1=CC(=CC=C1NC(=S)NNC2=C(C=C(C=C2[N+](=O)[O-])C(F)(F)F)[N+](=O)[O-])F [Kobe2602] + Cc1nc(NC(=O)N2CCC[C@H]2C(N)=O)sc1-c1ccnc(C(C)(C)C(F)(F)F)c1 [Alpelisib] (partner 2 µM)
Procedure, shortened: as §1

[1] = compound: COc1cc2nccc(Oc3ccc(NC(=O)C4(C(=O)Nc5ccc(F)cc5)CC4)cc3)c2cc1OC [Cabozantinib] + Nc1nc2[nH]cc(CCc3ccc(C(=O)N[C@@H](CCC(=O)O)C(=O)O)cc3)c2c(=O)[nH]1 [Pemetrexed] (partner 0.2 µM)
Procedure, shortened: as §1

Row | Cell Line | relative viability (Cabozantinib + OSI-027; first compound 0.02 µM) | relative viability (Cabozantinib + OSI-027; first compound 0.06325 µM) | relative viability (Cabozantinib + OSI-027; first compound 0.2 µM) | relative viability (Cabozantinib + OSI-027; first compound 0.6325 µM) | relative viability (Cabozantinib + OSI-027; first compound 2 µM) | relative viability (Kobe2602 + Dasatinib; first compound 0.2 µM) | relative viability (Kobe2602 + Dasatinib; first compound 0.6325 µM) | relative viability (Kobe2602 + Dasatinib; first compound 2 µM) | relative viability (Kobe2602 + Dasatinib; first compound 6.325 µM) | relative viability (Kobe2602 + Dasatinib; first compound 20 µM) | relative viability (Kobe2602 + Alpelisib; first compound 0.2 µM) | relative viability (Kobe2602 + Alpelisib; first compound 0.6325 µM) | relative viability (Kobe2602 + Alpelisib; first compound 2 µM) | relative viability (Kobe2602 + Alpelisib; first compound 6.325 µM) | relative viability (Kobe2602 + Alpelisib; first compound 20 µM) | relative viability ([1]; first compound 0.02 µM) | relative viability ([1]; first compound 0.06325 µM) | relative viability ([1]; first compound 0.2 µM) | relative viability ([1]; first compound 0.6325 µM) | relative viability ([1]; first compound 2 µM)
1 | NCI-H1563 | 0.762 | 0.743 | 0.757 | 0.718 | 0.684 | 0.473 | 0.473 | 0.466 | 0.467 | 0.527 | 0.939 | 0.917 | 0.871 | 0.839 | 1.08 | 0.645 | 0.869 | 0.984 | 0.684 | 0.802
2 | EKVX | 0.655 | 0.981 | 0.637 | 0.679 | 0.778 | 0.6 | 0.578 | 0.513 | 0.474 | 0.454 | 0.886 | 0.852 | 0.826 | 0.913 | 0.925 | 0.376 | 0.477 | 0.352 | 0.467 | 0.461
3 | NCI-H1666 | 0.694 | 0.836 | 0.816 | 0.846 | 0.913 | 0.833 | 0.825 | 0.777 | 0.899 | 0.735 | 0.97 | 0.925 | – | 0.893 | 0.768 | 0.9 | 0.902 | 0.873 | 0.899 | 0.875
4 | HCC-15 | 0.477 | 0.744 | 0.66 | 0.657 | 0.622 | 0.586 | 0.658 | 0.555 | 0.574 | 0.494 | 0.797 | 0.938 | 0.875 | 0.849 | 0.885 | 0.231 | 0.228 | 0.226 | 0.223 | 0.215
5 | LCLC-103H | 0.344 | 0.561 | 0.487 | 0.509 | 0.394 | 0.47 | 0.487 | 0.457 | 0.512 | 0.49 | 0.897 | 0.944 | 0.961 | 1.02 | 0.985 | 0.45 | 0.451 | 0.459 | 0.527 | 0.465
6 | NCI-H2405 | 0.338 | 0.699 | 0.735 | 0.651 | 0.682 | 0.24 | 0.211 | 0.215 | 0.228 | 0.228 | 0.748 | 0.94 | 0.721 | 0.896 | 0.831 | 0.818 | 1.13 | 1.08 | 1.09 | 1.02
7 | NCI-H1915 | 0.627 | 0.623 | 0.631 | 0.589 | 0.593 | 0.336 | 0.338 | 0.289 | 0.318 | 0.341 | 1.1 | 1.09 | 1.02 | 1.06 | 1.05 | 0.532 | 0.51 | 0.507 | 0.505 | 0.459
8 | NCI-H661 | 0.667 | 0.686 | 0.673 | 0.675 | 0.687 | 0.799 | 1.09 | 0.904 | 0.847 | 0.758 | 0.565 | 0.644 | 0.738 | 0.661 | 0.955 | 0.959 | 0.941 | 0.981 | 0.939 | 1.07
